From ChEMBL document CHEMBL2390845, “Identification of PDZ ligands by docking-based virtual screening for the development of novel analgesic agents” (Bioorg Med Chem Lett, 2013)
Activity calls are given as the source filed them.

Legend:
[1] = biological target: Disks large homolog 4 (Homo sapiens) (UniProt P78352); assay: Binding affinity to PSD-95 PDZ2 domain (unknown origin) expressed in Escherichia coli BL21 at 1 mM by 1H-15N HSQC NMR analysis
[2] = biological target: Disks large homolog 4 (Homo sapiens) (UniProt P78352); assay: Binding affinity to PSD-95 PDZ1 domain (unknown origin) expressed in Escherichia coli BL21 at 1 mM by 1H-15N HSQC NMR analysis
[3] = tested on: Rattus norvegicus; assay: Antihyperalgesic activity in intrathecally dosed chronic constriction nerve injury-induced rat neuropathic pain model assessed as vocalisation threshold to paw-pressure measured up to 120 mins post-compound treatment; format: functional, organism-based
[4] = tested on: Rattus norvegicus; assay: Antihyperalgesic activity in chronic constriction nerve injury-induced rat neuropathic pain model assessed as reduction in mechanical hyperalgesia measuring vocalisation threshold to paw-pressure at 122.6 ng administered intrathecally measured 15 mins post-compound treatment; format: functional, organism-based

Disks large homolog 4 (Homo sapiens), sequence (P78352 whole entry, looked up, the tested form may be a part): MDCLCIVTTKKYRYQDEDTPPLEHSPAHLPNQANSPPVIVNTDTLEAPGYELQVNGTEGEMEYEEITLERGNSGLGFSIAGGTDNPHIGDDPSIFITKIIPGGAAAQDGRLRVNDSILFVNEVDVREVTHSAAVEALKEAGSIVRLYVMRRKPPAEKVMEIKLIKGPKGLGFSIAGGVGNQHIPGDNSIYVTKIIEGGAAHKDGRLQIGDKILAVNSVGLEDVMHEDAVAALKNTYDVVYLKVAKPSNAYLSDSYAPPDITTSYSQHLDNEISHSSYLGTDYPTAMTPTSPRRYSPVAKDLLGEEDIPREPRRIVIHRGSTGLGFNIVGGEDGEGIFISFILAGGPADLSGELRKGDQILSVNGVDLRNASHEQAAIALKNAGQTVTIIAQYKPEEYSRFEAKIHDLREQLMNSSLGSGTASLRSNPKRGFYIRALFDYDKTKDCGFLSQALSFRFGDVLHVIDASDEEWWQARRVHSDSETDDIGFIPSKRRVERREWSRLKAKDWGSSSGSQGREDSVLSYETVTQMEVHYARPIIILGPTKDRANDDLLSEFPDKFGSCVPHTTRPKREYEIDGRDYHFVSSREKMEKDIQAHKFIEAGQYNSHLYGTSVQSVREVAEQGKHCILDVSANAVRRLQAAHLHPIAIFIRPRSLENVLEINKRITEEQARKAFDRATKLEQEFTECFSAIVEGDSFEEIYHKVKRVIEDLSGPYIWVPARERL

In the case of `Cc1cc2cc(C)c(C(=O)O)nc2cc1C(=O)O`, the Activity [1] is reported as “Active”, the Activity [2] is reported as “Active” and the Activity [3] is reported as “Dose-dependent effect”. The Activity [4] was “Active”.
With `O=C(N/N=C/c1cccc(O)c1O)c1ccc(O)cc1` the Activity [1] was “inactive” and the Activity [2] was “inactive”.
`O=C(O)c1ccc(N[C@@H]2O[C@H](CO)[C@@H](O)[C@H](O)[C@H]2O)cc1` was tested, and the Activity [1] was “inactive” and the Activity [2] was “inactive”.
